Results published in patent US8450317B2, “CXCR3 receptor antagonists” (Boehringer Ingelheim International GmbH, priority 2009, dated 2013).

Target: CXCR3 (Macaca fascicularis, UniProt A0A2K5UV19)
Assay: functional cellular assay measuring calcium flux in CXCR3 transfected cells (block of CXCR3/IP-10 interaction)
Format: cell-based, Cyno
Settings: IP-10 induced intracellular calcium flux; Cyno-CHO cells stably expressing recombinant CXCR3 and G-alpha-16; IP-10 at EC80; read-out: IC50
Procedure, shortened: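 Cyno-CHO cells stably expressing CXCR3 and G-alpha-16, loaded with Ca-4 dye in HBSS/10 mM HEPES pH 7.4 with 2 mM probenecid for 1 h at 37° C. Compound (final 10 microM) preincubated 15 min at room temperature, then IP-10 at EC80 added; calcium flux read at 480/540 nm.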

CXCR3, sequence (A0A2K5UV19 entry or part of it): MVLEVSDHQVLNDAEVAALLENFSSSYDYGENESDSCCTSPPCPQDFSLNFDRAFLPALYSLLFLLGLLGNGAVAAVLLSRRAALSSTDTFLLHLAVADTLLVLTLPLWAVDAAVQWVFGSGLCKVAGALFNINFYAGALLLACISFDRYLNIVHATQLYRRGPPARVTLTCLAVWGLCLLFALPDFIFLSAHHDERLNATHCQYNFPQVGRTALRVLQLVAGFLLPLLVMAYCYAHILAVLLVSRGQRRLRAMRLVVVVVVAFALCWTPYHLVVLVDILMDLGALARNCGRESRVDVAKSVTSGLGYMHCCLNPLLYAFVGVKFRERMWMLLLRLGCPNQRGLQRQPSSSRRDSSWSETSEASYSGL

Row | SMILES | IC50 [nM]
1 | O=C(CNc1nccs1)N1CCN(c2ccccc2-c2cnc(N3CCOCC3)nc2)CC1 [1-{4-[2-(2-Morpholin-4-yl-pyrimidin-5-yl)-phenyl]-piperazin-1-yl}-2-(thiazol-2-ylamino)-ethanone] | 35
2 | O=C(Cn1ccc2cccnc21)N1CCN(c2ccccc2-c2cnc(N3CCOCC3)nc2)CC1 [1-{4-[2-(2-Morpholin-4-yl-pyrimidin-5-yl)-phenyl]-piperazin-1-yl}-2-pyrrolo[2,3-b]pyridin-1-yl-ethanone] | 6
3 | O=C(Cn1ccc2cccnc21)N1CCC(c2ccccc2-c2cnc(N3CCOCC3)nc2)CC1 [1-{4-[2-(2-Morpholin-4-yl-pyrimidin-5-yl)-phenyl]-piperidin-1-yl}-2-pyrrolo[2,3-b]pyridin-1-yl-ethanone] | 11
4 | O=C(Cn1ccc2cccnc21)N1CCN(c2ccccc2-c2cnc(N3CCCCC3)nc2)CC1 [1-{4-[2-(2-Piperidin-1-yl-pyrimidin-5-yl)-phenyl]-piperazin-1-yl}-2-pyrrolo[2,3-b]pyridin-1-yl-ethanone] | 11
5 | O=C(Cn1ccc2cccnc21)N1CCN(c2ccccc2-c2cnc(N3CCCC3)nc2)CC1 [1-{4-[2-(2-Pyrrolidin-1-yl-pyrimidin-5-yl)-phenyl]-piperazin-1-yl}-2-pyrrolo[2,3-b]pyridin-1-yl-ethanone] | 9
6 | O=C(Cn1ccc2cccnc21)N1CCN(c2ccccc2-c2ccc(Cl)nc2)CC1 [1-{4-[2-(6-Chloro-pyridin-3-yl)-phenyl]-piperazin-1-yl}-2-pyrrolo[2,3-b]pyridin-1-yl-ethanone] | 31
7 | O=C(Cn1ccc2cccnc21)N1CCN(c2c(F)cccc2-c2cnc(N3CCOCC3)nc2)CC1 [1-{4-[2-Fluoro-6-(2-morpholin-4-yl-pyrimidin-5-yl)-phenyl]-piperazin-1-yl}-2-pyrrolo[2,3-b]pyridin-1-yl-ethanone] | 27
8 | CS(=O)(=O)c1ncc(-c2cc(Cl)ccc2N2CCN(C(=O)Cn3ccc4cccnc43)CC2)cn1 [1-{4-[4-Chloro-2-(2-methanesulfonyl-pyrimidin-5-yl)-phenyl]-piperazin-1-yl}-2-pyrrolo[2,3-b]pyridin-1-yl-ethanone] | 24
9 | COc1ncc(-c2cc(Cl)ccc2N2CCN(C(=O)Cn3nc(C)cc3C)CC2)cn1 [1-{4-[4-Chloro-2-(2-methoxy-pyrimidin-5-yl)-phenyl]-piperazin-1-yl}-2-(3,5-dimethyl-pyrazol-1-yl)-ethanone] | 12
10 | CNc1ncc(-c2cc(Cl)ccc2N2CCN(C(=O)Cn3nc(C)cc3C)CC2)cn1 [1-{4-[4-Chloro-2-(2-methylamino-pyrimidin-5-yl)-phenyl]-piperazin-1-yl}-2-(3,5-dimethyl-pyrazol-1-yl)-ethanone] | 13
11 | CSc1ncc(-c2cc(Cl)ccc2N2CCN(C(=O)Cn3nc(C)cc3C)CC2)cn1 [1-{4-[4-Chloro-2-(2-methylsulfanyl-pyrimidin-5-yl)-phenyl]-piperazin-1-yl}-2-(3,5-dimethyl-pyrazol-1-yl)-ethanone] | 7
12 | CSc1ncc(-c2cc(Cl)ccc2N2CCN(C(=O)Cn3ccc4cccnc43)CC2)cn1 [1-{4-[4-Chloro-2-(2-methylsulfanyl-pyrimidin-5-yl)-phenyl]-piperazin-1-yl}-2-pyrrolo[2,3-b]pyridin-1-yl-ethanone] | 8
13 | Cc1cc(C)n(CC(=O)N2CCN(c3ccc(Cl)cc3-c3cnc(N4CCOCC4)nc3)CC2)n1 [1-{4-[4-Chloro-2-(2-morpholin-4-yl-pyrimidin-5-yl)-phenyl]-piperazin-1-yl}-2-(3,5-dimethyl-pyrazol-1-yl)-ethanone] | 11
14 | O=C(Cn1ccc2cccnc21)N1CCN(c2ccc(Cl)cc2-c2cnc(N3CCOCC3)nc2)CC1 [1-{4-[4-Chloro-2-(2-morpholin-4-yl-pyrimidin-5-yl)-phenyl]-piperazin-1-yl}-2-pyrrolo[2,3-b]pyridin-1-yl-ethanone] | 13
15 | COc1ccc(N2CCN(C(=O)Cn3ccc4cccnc43)CC2)c(-c2cnc(N3CCOCC3)nc2)c1 [1-{4-[4-Methoxy-2-(2-morpholin-4-yl-pyrimidin-5-yl)-phenyl]-piperazin-1-yl}-2-pyrrolo[2,3-b]pyridin-1-yl-ethanone] | 9
16 | COc1ncc(-c2cc(F)ccc2N2CCN(C(=O)Cn3cnc4cccnc43)CC2)cn1 [1-{4-[4-fluoro-2-(2-methoxypyrimidin-5-yl)phenyl]piperazin-1-yl}-2-(3H-imidazo[4,5-b]pyridin-3-yl)ethanone] | 53
17 | COc1ncc(-c2ccccc2N2CCN(C(=O)CN3Cc4ccccc4C3=O)CC2)cn1 [2-(2-{4-[2-(2-Methoxy-pyrimidin-5-yl)-phenyl]-piperazin-1-yl}-2-oxo-ethyl)-2,3-dihydro-isoindol-1-one] | 17
18 | Cc1cc(C)n(CC(=O)N2CCN(c3ccccc3-c3cnc(N4CCCC(F)C4)nc3)CC2)n1 (centres unmarked) [2-(3,5-Dimethyl-pyrazol-1-yl)-1-(4-{2-[2-(3-fluoro-piperidin-1-yl)-pyrimidin-5-yl]-phenyl}-piperazin-1-yl)-ethanone] | 8
19 | Cc1cc(C)n(CC(=O)N2CCN(c3ccccc3-c3cnc(N4CCCC(C(F)(F)F)C4)nc3)CC2)n1 (centres unmarked) [2-(3,5-Dimethyl-pyrazol-1-yl)-1-(4-{2-[2-(3-trifluoromethyl-piperidin-1-yl)-pyrimidin-5-yl]-phenyl}-piperazin-1-yl)-ethanone] | 12
20 | Cc1cc(C)n(CC(=O)N2CCN(c3ccccc3-c3cnc(N4CCC(O)CC4)nc3)CC2)n1 [2-(3,5-Dimethyl-pyrazol-1-yl)-1-(4-{2-[2-(4-hydroxy-piperidin-1-yl)-pyrimidin-5-yl]-phenyl}-piperazin-1-yl)-ethanone] | 7
21 | COC1(C)CCN(c2ncc(-c3ccccc3N3CCN(C(=O)Cn4nc(C)cc4C)CC3)cn2)CC1 [2-(3,5-Dimethyl-pyrazol-1-yl)-1-(4-{2-[2-(4-methoxy-4-methyl-piperidin-1-yl)-pyrimidin-5-yl]-phenyl}-piperazin-1-yl)-ethanone] | 33
22 | COC[C@@H]1CCCN1c1ncc(-c2ccccc2N2CCN(C(=O)Cn3nc(C)cc3C)CC2)cn1 [2-(3,5-Dimethyl-pyrazol-1-yl)-1-(4-{2-[2-((S)-2-methoxymethyl-pyrrolidin-1-yl)-pyrimidin-5-yl]-phenyl}-piperazin-1-yl)-ethanone] | 12
23 | Cc1cc(C)n(CC(=O)N2CCN(c3ccccc3-c3cnc(Oc4cccnc4)nc3)CC2)n1 [2-(3,5-Dimethyl-pyrazol-1-yl)-1-(4-{2-[2-(pyridin-3-yloxy)-pyrimidin-5-yl]-phenyl}-piperazin-1-yl)-ethanone] | 56

More lines, now with the values ahead:

Row | IC50 [nM] | SMILES
24 | 9 | O=C(Cn1ccc2cccnc21)N1CCN(c2ccccc2-c2cnc(N3CCCOCC3)nc2)CC1 [1-{4-[2-(2-[1,4]Oxazepan-4-yl-pyrimidin-5-yl)-phenyl]-piperazin-1-yl}-2-pyrrolo[2,3-b]pyridin-1-yl-ethanone]
25 | 34 | COc1ccc(-c2ccccc2N2CCN(C(=O)Cn3ccc4cccnc43)CC2)cn1 [1-{4-[2-(6-Methoxy-pyridin-3-yl)-phenyl]-piperazin-1-yl}-2-pyrrolo[2,3-b]pyridin-1-yl-ethanone]
26 | 7 | COc1ncc(-c2cc(Cl)ccc2N2CCN(C(=O)Cn3ccc4cccnc43)CC2)cn1 [1-{4-[4-Chloro-2-(2-methoxy-pyrimidin-5-yl)-phenyl]-piperazin-1-yl}-2-pyrrolo[2,3-b]pyridin-1-yl-ethanone]
27 | 6 | CNc1ncc(-c2cc(Cl)ccc2N2CCN(C(=O)Cn3ccc4cccnc43)CC2)cn1 [1-{4-[4-Chloro-2-(2-methylamino-pyrimidin-5-yl)-phenyl]-piperazin-1-yl}-2-pyrrolo[2,3-b]pyridin-1-yl-ethanone]
28 | 11 | COc1ncc(-c2cc(F)ccc2N2CCN(C(=O)Cn3ccc4cccnc43)CC2)cn1 [1-{4-[4-fluoro-2-(2-methoxypyrimidin-5-yl)phenyl]piperazin-1-yl}-2-(1H-pyrrolo[2,3-b]pyridin-1-yl)ethanone]
29 | 13 | COc1ncc(-c2cc(F)ccc2N2CCN(C(=O)Cn3ccc4ccncc43)CC2)cn1 [1-{4-[4-fluoro-2-(2-methoxypyrimidin-5-yl)phenyl]piperazin-1-yl}-2-(1H-pyrrolo[2,3-c]pyridin-1-yl)ethanone]
30 | 7 | CC1CN(c2ccc(C(F)(F)F)cc2-c2cnc(N3CCC(S(C)(=O)=O)CC3)nc2)CCN1C(=O)CN1Cc2ccccc2C1=O (centres unmarked) [2-(2-{2-methyl-4-[2-{2-[4-(methylsulfonyl)piperidin-1-yl]pyrimidin-5-yl}-4-(trifluoromethyl)phenyl]piperazin-1-yl}-2-oxoethyl)-2,3-dihydro-1H-isoindol-1-one]
31 | 9 | Cc1cc(C)n(CC(=O)N2CCN(c3ccccc3-c3cnc(N4CCC(O)C4)nc3)CC2)n1 (centres unmarked) [2-(3,5-Dimethyl-pyrazol-1-yl)-1-(4-{2-[2-(3-hydroxy-pyrrolidin-1-yl)-pyrimidin-5-yl]-phenyl}-piperazin-1-yl)-ethanone]
32 | 10 | Cc1cc(C)n(CC(=O)N2CCN(c3ccccc3-c3cnc(N4CCC(F)CC4)nc3)CC2)n1 [2-(3,5-Dimethyl-pyrazol-1-yl)-1-(4-{2-[2-(4-fluoro-piperidin-1-yl)-pyrimidin-5-yl]-phenyl}-piperazin-1-yl)-ethanone]
33 | 6 | Cc1cc(C)n(CC(=O)N2CCN(c3ccccc3-c3cnc(N4CCC(S(C)(=O)=O)CC4)nc3)CC2)n1 [2-(3,5-Dimethyl-pyrazol-1-yl)-1-(4-{2-[2-(4-methanesulfonyl-piperidin-1-yl)-pyrimidin-5-yl]-phenyl}-piperazin-1-yl)-ethanone]
34 | 40 | Cc1cc(C)n(CC(=O)N2CCN(c3ccccc3-c3cnc(N4CCN(C)CC4)nc3)CC2)n1 [2-(3,5-Dimethyl-pyrazol-1-yl)-1-(4-{2-[2-(4-methyl-piperazin-1-yl)-pyrimidin-5-yl]-phenyl}-piperazin-1-yl)-ethanone]
35 | 21 | Cc1cc(C)n(CC(=O)N2CCN(c3ccccc3-c3cnc(N4CCC5CCCCC5C4)nc3)CC2)n1 (centres unmarked) [2-(3,5-Dimethyl-pyrazol-1-yl)-1-(4-{2-[2-(octahydro-isoquinolin-2-yl)-pyrimidin-5-yl]-phenyl}-piperazin-1-yl)-ethanone]
